Assay results as given in EP4653424A1, “PYRIDAZINONE PARP INHIBITOR, AND PREPARATION METHOD THEREFOR, AND PHARMACEUTICAL COMPOSITION AND USE THEREOF” (China Pharmaceutical University, priority 2023, dated 2024).

Legend:
Caco-2 cell = experiment: Caco-2 bidirectional (ABBA) permeability assay; format: in vitro ADME
Protocol: (§1) Materials: test compounds I-A-1, I-A-2, and RBN-2397.
(§2) • (1) Caco-2 cell plating • 1. 600 µL of cell culture medium and 100 µL of cell culture medium were added to the wells of […], respectively; • 2. Before cell inoculation, Transwell was pre-incubated at 37 °C and 5% CO2 for 1 h; • 3. 100 µL of cell suspension (4 × 10^5 cells/mL) was seeded into the culture medium and cultured at 37 °C, 5% CO2, and 95% relative humidity for 14-21 days; • 4. The cell culture medium was replaced once every other day in the first 7 days, and once every day after day 7; • 5. The transepithelial electrical resistance (TEER) of the monolayer membrane was measured using EVOM3. • (2) ABBA process • 1. The plate was washed twice with pre-heated HBSS (10 mM HEPES, pH 7.4) and then incubated at 37 °C for 30 min. • 2. Test compounds were prepared in 1 mM DMSO and diluted 200-fold to 5 µM with HBSS (10 mM HEPES, pH 7.4) and HBSS (100 µM Lucifer Yellow, 10 mM HEPES, pH 7.4). • 3. Apical to basal direction: 200 µL of 5 µM working solution (100 µM Lucifer Yellow) was added to the apical compartment, and 600 µL of HBSS (10 mM HEPES, pH 7.4) was added to the basal compartment. • 4. Basal to apical direction: 600 µL of 5 µM working solution was added to the basal compartment, and 200 µL of HBSS (100 µM Lucifer Yellow, 10 mM HEPES, pH 7.4) was added to the apical compartment. • 5. 100 µL of 5 µM working solution was transferred to a sample plate containing 400 µL of cold methanol, and IS* was C0. • 6. The cell plate was incubated at 37 °C, 5% CO2, and 95% relative humidity for 2 h. • 7. 5 µL of the working solution was transferred from the apical compartment and the basal compartment to the plate. After 0.5 h of incubation, the 427 nm excitation values and 536 nm emission values were read by the Lucifer Yellow leakage detector. • 8. After 2 h of incubation, 100 µL of the solution was transferred from the apical and basal compartments with IS* to a sample plate containing 400 µL of cold methanol. • 9. The sample plate was centrifuged at 3220 g for 40 min. • 10. 100 µL of the supernatant was transferred to an assay plate containing an appropriate volume of water for LC-MS/MS analysis. • (3) Calculation
(§3) The apparent permeability coefficient (Papp, cm/s) and the efflux ratio were calculated using Microsoft Excel. Papp = (VA × Cacceptor × 100)/(Area × Time × Cinitial,donor) [formula] Efflux Ratio = (Papp(B−A))/(Papp(A−B)) [formula] Table 3. Physicochemical properties of test compounds

[1] = Caco-2 bidirectional (ABBA) permeability assay; format: in vitro ADME; details: human, Caco-2
Protocol: as §1, §2, §3

PARP7 enzyme = biological target: T1, PARP7 enzyme (Homo sapiens, UniProt Q7Z3E1); experiment: PARP7 Chemiluminescent Assay Kit enzyme inhibition assay; format: biochemical; details: for inhibition at 0.1 µM: compound at 100 nM
T1 construct: purchased BPS Bioscience
T1 sequence (Q7Z3E1 1-657): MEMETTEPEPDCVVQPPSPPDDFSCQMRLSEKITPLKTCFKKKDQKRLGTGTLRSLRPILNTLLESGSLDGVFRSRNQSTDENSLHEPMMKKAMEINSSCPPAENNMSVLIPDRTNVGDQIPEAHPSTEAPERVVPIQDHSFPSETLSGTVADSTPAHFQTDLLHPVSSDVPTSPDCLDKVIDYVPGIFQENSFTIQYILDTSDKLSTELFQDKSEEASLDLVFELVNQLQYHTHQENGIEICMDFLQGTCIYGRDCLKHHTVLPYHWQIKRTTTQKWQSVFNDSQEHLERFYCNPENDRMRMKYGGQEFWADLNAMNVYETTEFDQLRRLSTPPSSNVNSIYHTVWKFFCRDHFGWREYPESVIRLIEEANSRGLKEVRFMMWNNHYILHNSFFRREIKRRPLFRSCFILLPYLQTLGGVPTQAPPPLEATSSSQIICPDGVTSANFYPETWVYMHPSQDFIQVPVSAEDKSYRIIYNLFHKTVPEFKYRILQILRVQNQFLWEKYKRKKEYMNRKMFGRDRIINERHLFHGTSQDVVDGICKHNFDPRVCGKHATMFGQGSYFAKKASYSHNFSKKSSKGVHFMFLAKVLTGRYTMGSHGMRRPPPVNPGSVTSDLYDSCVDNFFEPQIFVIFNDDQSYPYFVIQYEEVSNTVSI
Protocol: Example 60: Inhibitory activity of compounds against PARP7 enzyme
Materials: PARP7 Chemiluminescent Assay Kit, BPS Bioscience; DMSO, Sinopharm, Nivo, PerkinElmer.
Preparation of 10× PBS: 720 mg of KH2PO4, 45 g of NaCl, and 5.311 g of Na2HPO4·12H2O were dissolved in 500 mL of deionized water. The system was adjusted to pH 7.4, sterilized at 121 °C for 30 min, and cooled, and then preserved at 4 °C for later use.
Preparation of 1 × PBS: 10× PBS was diluted 10-fold with deionized water, i.e., 1 part of 10× PBS was diluted with 9 parts of deionized water.
Preparation of wash buffer: 1 × PBS containing 0.05% Tween-20.
Preparation of 1 × PARP buffer: (prepared right before use) 10× PARP buffer was diluted 10-fold with deionized water and placed on ice for later use.
According to the study requirements, the test compound was diluted to the desired concentration with 100% DMSO, and then diluted 10-fold with 1× PARP buffer to give a 10× compound working solution.
• a. 5× histone mixture was thawed on ice the day before the study; • b. 1× histone mixture was prepared by diluting 5× histone mixture into 1× histone mixture with 1× PBS; 25 µL of 1× histone mixture was added to each well of the test plate and incubated overnight at 4 °C; • c. 100 µL of the blocking buffer was taken per well and added to the test plate, and the plate was incubated at 25 °C for 90 min; • d. After the incubation was completed, the liquid in the test plate was discarded, and the plate was washed 3 times; • e. 2.5 µL of compound working solution was taken from each well and added to the test plate according to the experimental layout; a corresponding volume of 1× PARP buffer containing 10% DMSO was added to the positive control wells (Positive control), and a corresponding volume of 1× PARP buffer was added to the blank control wells (Blank); • f. After the enzyme was completely dissolved, the enzyme stock solution was diluted to 6 ng/µL with 1× PARP buffer; • g. The enzyme solution was added to a test well plate at 10 µL/well, and a corresponding volume of 1× PARP buffer was added to the blank control wells, where the enzyme amount was 60 ng/well. Note: this procedure should be performed on ice; • h. […] ELISA ECL Substrate A and ELISA ECL Substrate B in the kit were mixed in a ratio of 1:1, the mixed solution was added to the test plate at 50 µL/well, luminescence detection was immediately performed using Nivo, and the luminescence value (RLU) was read; • m. […] Enzyme inhibition = 1 - % Enzyme Activity; the IC 50 was calculated using GraphPad Prism 8.

SMILES | efflux ratio (Caco-2 cell; Caco-2, summary in words) | membrane permeability (Caco-2 cell; Caco-2, summary in words) | efflux ratio at 2 h, 5 µM ([1]; Papp(B-A)/Papp(A-B)) | Papp A→B at 2 h, 5 µM ([1]; apical to basal, 5 µM, 2 h) [×10⁻⁶ cm/s] | Papp B→A at 2 h, 5 µM ([1]; basal to apical, 5 µM, 2 h) [×10⁻⁶ cm/s] | IC50 (PARP7 enzyme) [nM] | inhibition at 0.1 µM (PARP7 enzyme) [%] | efflux ratio (Caco-2 cell; Papp(B-A)/Papp(A-B), Caco-2) | PappA→B (1E-6 cm/s) (Caco-2 cell; apical to basal, 5 µM, 2 h, Caco-2) | PappB→A (1E-6 cm/s) (Caco-2 cell; basal to apical, 5 µM, 2 h, Caco-2)
O=c1[nH]ncc(NCC#Cc2ccccc2C(F)(F)F)c1C(F)(F)F [I-A-1, 4-trifluoromethyl-5-((3-(2-(trifluoromethyl)phenyl)prop-2-yn-1-yl)amino)pyridazin-3(2 H)-one] | lower efflux ratio | better membrane permeability | 0.52 | 39.9 | 20.9 | < 100 | ≥ 50 | – | – | –
O=C(CCNc1cn[nH]c(=O)c1C(F)(F)F)c1ccccc1 [I-D-1, 5-((3-oxo-3-phenylpropyl)amino)-4-(trifluoromethyl)pyridazin-3(2 H)-one] | – | – | – | – | – | < 100 | ≥ 50 | – | – | –
C[C@@H](COCCC(=O)N1CCN(c2ncc(C(F)(F)F)cn2)CC1)Nc1cn[nH]c(=O)c1C(F)(F)F [RBN-2397, reference compound] | – | poor membrane permeability | – | – | – | – | – | 5.9 | 4.1 1E-6 cm/s | 24 1E-6 cm/s
